Patent publication US5277897A, “In vivo enhancement of cellular accumulation of lipophilic cationic organometallic compounds by reduction of intramembrane potential” (Brigham and Women's Hospital, priority 1992, dated 1994)

How the values were obtained:
[1] = test system: cultured chick heart cells; test: Effect of TPB on the Ko-dependence of Tc-MIBI influx rates; plasma membrane potential by Goldman flux equation (FIG. 6); format: cell-based
Protocol: FIG. 6. Effect of TPB on the Ko -dependence of Tc-MIBI influx rates. A) Preparations were preincubated in MEBSS containing the indicated Ko (K-MSA substitution for NaCl) for 1 minute in the absence (.quadrature.) and for 5 minutes in the presence ( ) of valinomycin (1 ug/ml) prior to determination of 2-min Tc-MIBI uptakes in buffer of the same composition. B) Same conditions as A with a 5-minute pre-incubation period in buffers that also contained TPB (10^-5 M) in the absence (o) or presence (·) of valinomycin. C) Resting membrane potential (Em) as a function of Ko. Em was calculated from the Tc-MIBI influx data shown in A in the presence of valinomycin using the Goldman flux equation (Restrepo, D., et al., J. Gen. Physiol. 92:489-507 (1988)): J/Jo =-x/(1-e^x) where x=Em F/RT and J/Jo is the ratio of Tc-MIBI influx rates at Em and zero membrane potential (Ko =130 mM), respectively. RT/F equals 26 mV at 37° C. The solid lines in A and B have no theoretical significance. The solid line in C represents a linear regression of the data: -Em =-67 log Ko +147mV (r=-0.99). […] Each point is the mean ±SEM of 3 determinations.
Monolayers of spontaneously contractile chick ventricular myocardial cells were obtained from disaggregated 10-day old chick embryo hearts by a slight modification of previously published methods (Horres, C. R., et al., In Pinson, A. (ed.), The Heart Cell in Culture, Boca Raton, CRC Press, pp. 77-108 (1987)). Hearts were trimmed of connective tissue and atria, finely minced and serially exposed to 0.024% (w/v) trypsin in Ca^2+ - and Mg^2+ - free Earle's salt solution for 7 minutes at 37° C. Gentle trituration and agitation on an orbital shaker bath aided disaggregation. Cells released from the first exposure were discarded and cells aspirated from the next four exposures were then added to an equal volume of trypsin deactivating solution consisting of ice-cold culture medium. Cells were centrifuged at 400 g for 10 minutes, resuspended and combined in culture medium, counted with a hemocytometer and diluted to yield a suspension of 5×10^5 cells/ml. 12 ml of suspension were incubated in 100 mm plastic culture dishes containing 7 coverslips (25 mm diameter) placed on the bottom of each dish to serve as substrate for cell growth. Cells were maintained in a humidified atmosphere of 5% CO2 /95% air for 3-4 days yielding a confluent layer of spontaneously contractile myocytes on each coverslip.
Radioactive uptake methods have been described in detail (Piwnica-Worms, D., et al, Circ. (in press). Briefly, coverslips with confluent cells were removed from culture media and pre-equilibrated for 40-60 seconds in MEBSS buffer. Uptake and retention experiments were initiated by immersion of coverslips in 60 mm glass Pyrex dishes containing loading solution consisting of buffer with 0.1-0.6 nM [^99m Tc-MIBI] (0.01-0.4 Ci/nmole; 25-100 uCi/ml). Preparations were removed at various times and rinsed three times in 25 ml volumes of ice-cold (2° C.) isotope-free buffer for 8 seconds each to clear extracellular spaces. Preparations and aliquots of the loading buffer and stock solutions were counted in a well-type sodium iodide gamma counter after which cell protein on each coverslip was extracted in 1% sodium dodecylsulfate with 10 mM sodium borate and assayed by the method of Lowry (Lowry, O. H., et al., J. Biol. Chem. 193:265-275 (1951)). Tc-MIBI binding to glass coverslips without cells was used as an estimate of non-specific adhesion to the substrate ([…] obtained with cellular preparations); this value was subtracted from total uptake determinations to derive the cell-associated counts. Use of generator equilibrium equations (Lamson, M. L., et al., i J. Nucl. Med. 16:639-641 (1975)) allowed calculation of absolute moles of Tc-MIBI in solutions and preparations. Results were therefore expressed as fmol cellular Tc-MIBI/mg protein per nM extracellular Tc-MIBI concentration. […]

[2] = diagnostic pharmaceutical; cited from earlier work

Compound: [C-]#[N+]CC(C)(C)OC.[C-]#[N+]CC(C)(C)OC.[C-]#[N+]CC(C)(C)OC.[C-]#[N+]CC(C)(C)OC.[C-]#[N+]CC(C)(C)OC.[C-]#[N+]CC(C)(C)OC.[Tc] [Tc-MIBI, hexakis(methoxyisobutylisonitrile)technetium(I)]
- valinomycin sensitivity of Tc-MIBI influx ([1]; absence of TPB): only modestly valinomycin-sensitive
- valinomycin sensitivity of Tc-MIBI influx ([1]; presence of TPB 10^-5 M): highly valinomycin-sensitive
- Nernstian behavior of Tc-MIBI ([1]; presence of valinomycin): close to ideal Nernstian behavior
- correlation coefficient r, Em vs log Ko from Tc-MIBI influx ([1]; valinomycin 1 ug/ml, no TPB): -0.99
- slope of membrane potential vs log Ko from Tc-MIBI influx ([1]; valinomycin 1 ug/ml, no TPB, Goldman flux equation): -67 mV/decade
- regression -Em = -67 log Ko + 147 mV: intercept ([1]; valinomycin, FIG. 6C): 147 mV
- regression -Em = -67 log Ko + 147 mV: slope ([1]; valinomycin, FIG. 6C): -67
- safety in humans [2]: shown to be safe in humans as a diagnostic pharmaceutical
